The test system of test [1] is 786-0 cells (VHL−/−). Description: 786-0 (VHL−/−) subcutaneous tumor growth in SCID/BEIGE mice, Tempol in chow. As to conditions: 10 mg/g of food, after ten weeks, compared to control mice fed normal chow (P<0.05). It is filed as in vivo. On the procedure:
Twenty female SCID/BEIGE mice were injected with 786-0 cells (VHL−/−) subcutaneously on the right flank, as described in Example 2. Starting on the day of injection, a control group of ten injected mice were fed standard chow (NIH-031, Zeigler Brothers, Inc. (Gardners, Pa.)) and a group ten injected mice received chow supplemented with Tempol. The Tempol diet supplement was made by a cold press technique from powdered Tempol uniformly mixed with bacon-flavored mouse chow (Bio-Serv Inc. (Frenchtown, N.J.)) providing a Tempol concentration of 10 mg/g of food. Bacon-flavored chow without Tempol was also added to the control diet. The volume of the tumors and the weight of the mice were recorded once a week for more than ten weeks. Tumor volumes as a function of time are depicted in FIG. 3. When the tumor volumes of the control group reached 1 cm^3, the tumors of all mice were harvested and fast-frozen or paraffin embedded for further experiments.

The subject of test [2] is 786-0 (VHL−/−) cells. In words: 786-0 (VHL−/−) subcutaneous tumor growth in SCID/BEIGE mice, Tempol in drinking water. It is filed as in vivo. As to conditions: 2 mM in drinking water. Here is the method:
The tumor inhibitory effect of stable nitroxides were studied in vivo using mice with mutations in the Prkdc gene (SCID, which is associated severe combined immunodeficiency), and bg (BEIGE) gene. Twenty female SCID/BEIGE mice (C.B-Igh-1b/GbmsTac-Prkdc^scid-Lyst^bg N7 (CBSCBG) from Taconic (Hudson, N.Y.)) were injected with about 8 million 786-0 (VHL−/−) cells subcutaneously on the right flank. Starting on the day of injection, Tempol was diluted in PBS and added twice a week to the water bottle feeding a group of ten injected mice. The final concentration of Tempol in water was 2 mM. The control group of ten remaining mice received an equivalent amount of PBS in water twice a week. The volume of the tumors and weight of the mice were recorded once a week for up to 100 days. When the control group tumor volume reached 1 cm^3, tumors of 8 mice maintained as controls were harvested. At the same time, 4 of the animals maintained on Tempol were harvested and fast-frozen or paraffin embedded for further experiments. The average tumor volume as a function of time for each group is depicted in FIG. 2.

In test [3] the test system is HIF2 α. In words: HIF-2α levels in eight other cell lines from patients with VHL mutations. It is filed as cell-based, human. As to conditions: Tempol treatment.
In test [4] the test system is HIF-2α. Description: Western blot of HIF-2α in nuclear proteins of 786-0 RCC cells. It is filed as cell-based, human. The settings on record: 786-0 cells, 5 mM, two to four hours, compared to Tempol-H or growth medium (control). Here is the method:
The human sporadic RCC cell line 786-0 was obtained from the American Tissue Culture Collection (ATCC) (Manassas, Va.). This cell line contains a single inactivated VHL allele, produces no VHL protein, is deficient for HIF-la expression, and constitutively expresses HIF-2α. Gnarra et al., Nat. Genet., 7: 85-90 (1994) and Maxwell et al., Nature, 399: 271-275 (1999). Cultures of 786-0 cells were pre-incubated for one hour in KREB's buffer (115 mM NaCl, 5.9 mM KCl, 1.2 mM MgCl2, 1.2 mM NaH2PO4, 1.2 mM Na2SO4, 2.5 mM CaCl2, and 25 mM NaHCO3) at pH 7.4 and with 4.5 g/L of glucose. Cells were then treated for two to four hours with (i) Tempol (5 mM) obtained from Sigma Aldrich (St. Louis, Mo.), (ii) its non-functional hydroxylamine (protonated, reduced) variant: 1,4-dihydroxy-2,2,6,6-tetramethylpiperidine (Tempol-H) (5 mM) (Sigma Aldrich), or (iii) growth medium as a negative control. Cells were harvested, nuclear protein extractions performed, and protein concentrations were measured by BCA assay from Pierce (Rockford, Ill.). Aliquots of extracted nuclear proteins (20 μg) were loaded in a 7.5% polyacrylamide gel and separated by sodium dodecyl sulfate polyacrylamide gel electrophoresis (SDS-PAGE). Proteins were transferred to PVDF membranes, which were then blocked for one to sixteen hours in a solution of 5% dry milk. […]
In general terms: In western blotting, separated proteins are transferred to a membrane and probed.

Each structure is given as a SMILES string.

For the molecule `CC1(C)CC(O)CC(C)(C)N1[O]` [Tempol, 4-hydroxy-2,2,6,6-tetramethylpiperidine-1-oxyl], the tumor growth result in test [1] was “reduced by a statistically significant amount”. Further, the “tumor size when sacrificed at the 80 day time point” value in test [2] (80 days, versus control animals) was “smaller tumors”. Moreover, the “average tumor volume as compared to the control group” value in test [2] (SCID/BEIGE mice, up to 100 days) is given as “markedly lower average tumor volume”. For the same molecule, in test [2] (four mice maintained up to 100 days), the “tumor size at 100 days” value is given as “quite small”. Further, the “HIF2 α levels” value in test [3] was “reduced HIF2 α levels significantly”. Moreover, in test [4], the HIF-2α levels result is recorded as “significantly reduced”.

The values above are taken from patent US8853277B2, “Nitroxide therapy for the treatment of von Hippel—Lindau disease (VHL) and renal clear cell carcinoma (RCC)” (The United States of America, as represented by the …, priority 2009, dated 2014).
